The results in this text go back to publication PMC6104605, “Discovery of new chromen-4-one derivatives as telomerase inhibitors through regulating expression of dyskerin” (Journal of Enzyme Inhibition and Medicinal Chemistry, 2018).

In test [1] the test system is dyskerin. In words: Western blot, dyskerin. As to conditions: SGC-7901, 1, 2 and 4 μM, 48 h. It is filed as cell-based, human. As for the experimental part: (§1) An equivalent volume of 5 × SDS-sample buffer was added to cell lysates and boiled for 10 min. The supernatants were subjected to electrophoresis on SDS-PAGE gels and transferred to PVDF membrane by using a Bio-Rad apparatus. Membranes were blocked for 3 h at room temperature in TBST containing 5% non-fat dried milk and probed overnight at 4 °C with antibodies. CyclinD1 (abcam, ab134175, 1:10000), CDC25A (abcam, ab156574, 1:1000), CDC25C (abcam, ab32051, 1:1000), bcl-2 (abcam, ab32124,1:1000), bax (abcam, ab32503, 1:1000), PARP (abcam, ab191217, 1:1000), γH2AX (abcam, ab81299, 1:5000), dyskerin (abcam, ab156877, 1:1000), NHP2 (abcam, ab180498, 1:1000), NOP10 (abcam, ab133726, 1:1000) antibody was performed with rabbit primary antibody. Otherwise, β-actin (ZSGB-BIO, 1:1000) detection was performed with mouse primary antibody which was served as internal controls. Protein bands of β-actin was visualised using peroxidase-labeled goat anti-mouse and others were visualised using peroxidase-labeled goat anti-rabbit secondary antibody (1:5000 dilution, 1 h, room temperature), and the protein expression signals were detected by the BeyoECL Plus (Beyotime).
For orientation: A western blot detects proteins with antibodies after separation by electrophoresis.

For test [2], the system named is dyskerin. In words: Immunofluorescence staining of dyskerin localisation. It is filed as cell-based, human. The following applies: SGC-7901, 2 µM, 48 h. How it is done: SGC-7901 cells were grown on glass coverslips in a 6-well culture plate until approximately 30–40% confluent and then treated with compound 5i for 48 h. The coverslips were fixed in 4% paraformaldehyde for 15 min, followed by 0.5% Triton X-100 for 30 min at room temperature. Fixed and permeabilised cells were blocked with 3% BSA for 30 min at room temperature. Then, the cells were respectively immunolabeled with the appropriate primary and secondary antibodies. FITC-conjugated anti-rabbit IgG (ZSBIO, 1:100) for dyskerin emit green fluorescence. DAPI was used for nuclear staining.

Test [3] concerns γH2AX. In words: Western blot, γH2AX. It counts as cell-based, human. As to conditions: SGC-7901, 1, 2 and 4 μM, 48 h. How it is done:
as §1

Test [4] relates to CDC25C. Description: Western blot, CDC25C. It counts as cell-based, human. As to conditions: SGC-7901, 1, 2 and 4 μM, 48 h. How it is done: as §1
Test [5] concerns DEN-induced rat hepatic tumor. In words: In vivo tumor model, DEN-induced rat hepatic tumor (HE histopathology). The following applies: DEN-induced SD rats, 50 mg·kg−1 orally once a day, 10 weeks. How it is done:
SD rats, male, 120 ∼ 160 g. 120 rats were divided randomly into two groups containing 12 normal rats and 108 DEN model rats. Rats were gavaged daily with DEN 8 mg/kg, once a day, 6 days a week. Normal saline rats were given the same volume, molding to 10 weeks. 60 model rats were randomly divided into five groups, 12 rats in each group, continued to give DEN; normal rats were given normal saline, molding to 16 week, stopped giving DEN. Compound 5i treatment group from the 10th week, 50 mg·kg^−1 was orally given, once a day, for 10 consecutive weeks. Similar parts of left lobe of liver were taken and fixed by 4% polyformaldehyde solution, embedded in paraffin, sliced and HE stained, for histopathological observation.

For test [6], the system named is human liver cancer cell HepG2. In words: MTT anticancer assay, HepG2. It counts as cell-based. The following applies: 48 h exposure, mean ± SD, dash = footnote d 'None'. How it is done: The MTT was purchased from Sigma. Cell Cycle Analysis Kit and Apoptosis Analysis Kit were purchased from Bestbio (China). Mitochondrial membrane potential assay kit with JC-1 was purchased from Beyotime (China). All the materials were used as received without further purification unless noted specifically. The cell culture was maintained on DMEM medium (Hyclone, US) supplemented with 10% fetal bovine serum (Sijiqing, China), 100 U/mL penicillin and 100 µg/mL streptomycin in 25-cm^2 culture flasks at 37 °C humidified atmosphere with 5% CO2. Drugs were dissolved in DMSO and filtered through 0.22-µm pore-size filter units before addition to cell line appropriate media. When tumor cells were grown to log phase, diluting to 5 × 10^4 cells mL^−1 with the complete medium, 100 µL of the obtained cell suspension was added to each well of 96-well culture plates. The subsequent incubation was performed at 37 °C, 5% CO2 atmosphere for 48 h before subjecting to anti-proliferation assessment. After 48-h exposure period, 20 µL of PBS containing 5 mg·mL^−1 of MTT was added to each well. After 4 h, the medium was replaced by 150 µL DMSO to dissolve the purple formazan crystals produced. The absorbance at 492 nm of each well was measured on an ELISA plate reader. The data represented the mean of three experiments in triplicate and were expressed as means ± SD. The IC50 value was defined as the concentration at which 50% of the cells could survive. The following human tumor cell lines were used in the assay: human gastric cancer cells SGC-7901, human liver cancer cell SMMC-7721 and HepG2, human cervical cancer cell Hela and human glioma cell U87.
(Tetrazolium assays rely on reduction of a dye to a coloured formazan, in cell work by metabolically active cells.)

Test [7] has as its system NHP2. Description: Western blot, NHP2. It is filed as cell-based, human. The following applies: SGC-7901, 1, 2 and 4 μM, 48 h. As for the experimental part:
as §1

Test [8] has as its system human normal gastric mucosa cell (GES-1). In words: Proliferative inhibition of human normal cell (MTT). It is filed as cell-based. As to conditions: GES1; MTT, human normal gastric mucosa cell; read-out: GES-1 IC50. From the text: In order to determine the selective cell toxicity of selected compounds. We subsequently conducted a proliferative inhibition assay with human normal gastric mucosa cell (GES-1).

Test [9] concerns Bcl-2/Bax. Description: Western blot, Bcl-2/Bax. It is filed as cell-based, human. The following applies: SGC-7901, 1, 2 and 4 μM, 48 h. How it is done: as §1

As to `COc1cc(OC)c2c(=O)c(OCCCCN3CCN(C(=O)c4ccncc4)CC3)c(-c3cc(OC)c(OC)c(OC)c3)oc2c1` [Compound 5i, 3-(4-(4-isonicotinoylpiperazin-1-yl)butoxy)-5,7-dimethoxy-2-(3,4,5-trimethoxyphenyl)-4H-chromen-4-one], the “protein level of dyskerin (western blot)” value in [1] is recorded as “significantly reduced”. Also, in test [2], the “cytoplasm localisation dyskerin (immunofluorescence)” value is given as “significantly reduced” and the “nucleus dyskerin (immunofluorescence)” value is given as “almost all the nucleus dyskerin was disappeared”. For the same compound, in [3], the “expression of γH2AX (western blot)” value is recorded as “significantly decrease”. For the same compound, in test [4], the “expression of CAC25C (western blot)” value is on record as “significantly decrease”. Besides, the “pathological changes of rat hepatic tumor (HE staining)” value in test [5] was “significantly improve pathological changes”. Further, the midpoint of inhibition in test [6], the IC50, lay at 0.00412 ± 0.00051 mM. For the same compound, the “NHP2 protein level (western blot)” value in [7] was “no significant changes”. Further, the IC50 (as a rule, the midpoint of a concentration-inhibition curve) in [8] was 3.71 ± 0.33 mM. Further, the “proportion of Bcl-2/Bax (western blot)” value in [9] is “reduced”.
